# Test results reported in patent US11179412B2, “Methods of treating conditions involving elevated inflammatory response” (University of Pittsburgh—Of the Commonwealth System of …, priority 2017, dated 2021).
# Where a name gives a salt, the structure may show the parent alone.
# Test system: STING activation (IFNβ release) in iBMDMs
# Assay: IFNβ release ELISA after STING ligand (or LPS) stimulation, iBMDMs
# Type: cell-based, mouse
# Details: 16 h, 10 µM
# How it was run: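 iBMDMs were stimulated with a STING ligand such as 3′3′-cGAMP, or with LPS. Secreted IFNβ in culture medium was measured by commercial mouse or human IFNβ ELISA.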
row,Compound,fold increase in IFN-β release [fold]
1,C=C1C[C@@H]2[C@H](CC[C@]3(C)C(=O)CC[C@@H]23)[C@@]2(C)C=CC(=O)C=C12 [Exemestane],1.11

# Same assay, conditions: iBMDMs; 3′3′-cGAMP 10 μg/ml, 16 hours; compound 10 μM
row,Compound,fold increase in IFN-β release [fold]
1,(−)-Parthenolide,0.16
2,Cc1cc(SCc2sc(-c3ccc(C(F)(F)F)c(F)c3)nc2C)ccc1OCC(=O)O [GW0742],0.13
3,"CC(C)C[C@H](NC(=O)[C@@H](NC(=O)c1cccc(-c2ccccc2)n1)[C@@H](C)O)B(O)O [CEP-18770 (Delanzomib), Delanzomib]",0.82
4,Pifithrin-μ,0.16
5,CC(C)n1c(/C=C/C(O)CC(O)CC(=O)O)c(-c2ccc(F)cc2)c2ccccc21 (stereo not shown) [Fluvastatin Sodium],0.32
6,"Cc1cn(-c2cc(NC(=O)c3ccc(C)c(Nc4nccc(-c5cccnc5)n4)c3)cc(C(F)(F)F)c2)cn1 [Nilotinib (AMN-107), Nilotinib]",0.77
7,CN(C)CCc1c[nH]c2ccc(Cn3cncn3)cc12 [Rizatriptan Benzoate],2.85
8,O=C(/C=C/c1ccccc1)NC(NC(=S)Nc1ccc(Cl)cc1)C(Cl)(Cl)Cl (stereo not shown) [Sal003],0.18
9,O=C(NC[C@H]1CN(c2ccc(N3CCOCC3=O)cc2)C(=O)O1)c1ccc(Cl)s1 [Rivaroxaban],0.54
10,Cc1nn(-c2ccccc2)c(C)c1/C=N/N1CCN(Cc2ccccc2)CC1 [SANT-1],1.49
11,CC1=C(/C=C/C(C)=C/C=C/C(C)=C\C(=O)O)C(C)(C)CCC1 [Isotretinoin],0.10
12,O=c1cc(-c2cccc3c2Sc2ccccc2S3)oc(N2CCOCC2)c1 [KU-55933 (ATM Kinase Inhibitor)],0.33
13,Cc1cnc(NC(=O)Nc2cc(Br)c(C)cc2OC[C@@H]2CNCCO2)cn1 [LY2603618],1.08
14,C[C@H](Oc1cc(-c2cnn(C3CCNCC3)c2)cnc1N)c1c(Cl)ccc(F)c1Cl [(S)-crizotinib],3.05
15,"COCCn1c2c([n+](Cc3cnccn3)c1C)C(=O)c1ccccc1C2=O [YM155 (Sepantronium Bromide), Sepantronium Bromide]",0.30
16,O=C1[C@H](Cc2ccc(O)cc2)N2C(=O)CCN(C(=O)NCc3ccccc3)[C@H]2CN1Cc1cccc2ccccc12 [ICG-001],0.10
17,CS(=O)(=O)c1ccc(-c2cnc(N)c(C(=O)Nc3ccccc3)n2)cc1 [VE-821],0.45
18,Cc1cnc(-c2ccccc2C(C)C)nc1NCc1ccc(-n2ccnn2)cc1 [ML323],0.43
19,CNCc1ccc(-c2cc(-c3nc(-c4ccc(S(=O)(=O)C(C)C)cc4)cnc3N)on2)cc1 [VE-822],0.86
20,O=c1oc2cc(O)ccc2s1 [Tioxolone],1.88
21,O=C(O)CNC(=O)c1c(O)c2ccccc2n(Cc2ccccc2)c1=O [IOX2],0.44

row,Compound,fold increase in IFN-β release [fold]
1,COc1cc(-c2ncn(/C=C\C(=O)OC(C)C)n2)cc(C(F)(F)F)c1 [KPT-185],0.59
2,COc1cccc(C=NCCN=Cc2cccc(OC)c2[O-])c1[O-].[Cl-].[Mn+3] [EUK 134],1.10
3,"CC1(COc2ccc3c(c2)ncn3-c2ccc3cccc(N4CCC(N)CC4)c3n2)COC1 [Crenolanib (CP-868596), Crenolanib]",0.32
4,"CC1(C)CCC(c2ccc(Cl)cc2)=C(CN2CCN(c3ccc(C(=O)NS(=O)(=O)c4ccc(N[C@H](CCN5CCOCC5)CSc5ccccc5)c(S(=O)(=O)C(F)(F)F)c4)cc3)CC2)C1 [ABT-263 (Navitoclax), Navitoclax]",1.27
5,HSP990 (NVP-HSP990),0.26
6,COc1cc2c(cc1OC)CN(CCc1ccc(NC(=O)c3cc(OC)c(OC)cc3NC(=O)c3cnc4ccccc4c3)cc1)CC2 [Tariquidar],0.77
7,O=C(/C=C/c1ccc2ccccc2n1)c1ccncc1 [PFK15],0.68
8,SNS-314 Mesylate,1.10
9,C[C@@H](O[C@H]1OCCN(Cc2n[nH]c(=O)[nH]2)[C@H]1c1ccc(F)cc1)c1cc(C(F)(F)F)cc(C(F)(F)F)c1 [Aprepitant],0.76
10,COc1ccc([C@]2(C#N)CC[C@@H](C(=O)O)CC2)cc1OC1CCCC1 [Cilomilast],2.08
11,Ifenprodil Tartrate,1.71
12,"CC(C)(C)c1nc(-c2cccc(NS(=O)(=O)c3c(F)cccc3F)c2F)c(-c2ccnc(N)n2)s1 [Dabrafenib (GSK2118436), Dabrafenib]",0.86
13,CCOc1ccc(Cc2cc([C@@H]3O[C@H](CO)[C@@H](O)[C@H](O)[C@H]3O)ccc2Cl)cc1 [Dapagliflozin],1.57
14,OCCn1cc(-c2cnc3nnn(Cc4ccc5ncccc5c4)c3n2)cn1 [PF-04217903],1.49
15,CCN1CCC[C@H]1CNC(=O)c1cc(S(N)(=O)=O)ccc1OC [Levosulpiride],1.91
16,CCOC(=O)N1CCC(=C2c3ccc(Cl)cc3CCc3cccnc32)CC1 [Loratadine],3.65
17,CN[C@@H](C)C(=O)N[C@H](C(=O)N1CCC[C@H]1C(=O)Nc1snnc1-c1ccccc1)C1CCCCC1 [GDC-0152],1.79
18,O=C(NOC[C@H](O)CO)c1ccc(F)c(F)c1Nc1ccc(I)cc1F [PD0325901],0.39
19,O=C(O)c1ccc(Nc2ncc3c(n2)-c2ccc(Cl)cc2C(c2c(F)cccc2F)=NC3)cc1 [MLN8054],0.77
20,"CNC(=O)c1ccc2cc([C@@]3(O)CCn4cncc43)ccc2c1 [TAK-700 (Orteronel), Orteronel]",2.72
21,O=C(O)c1cc2cccc([N+](=O)[O-])c2[nH]1 [CRT0044876],2.75

row,Compound,fold increase in IFN-β release [fold]
1,CCCCCCCCCCCCCCCCn1cc[n+](Cc2ccccc2)c1C.[I-] [NH125],0.11
2,O=[N+]([O-])c1ccc2c(c1)S(=O)(=O)C=C2 [Stattic],0.10
3,COc1cc2c(cc1OC)[C@@H]1Cc3ccc(OC)c(OC)c3CN1CC2 [Rotundine],0.54
4,"COc1cc2c(cc1O)CC[C@@H]1[C@@H]2CC[C@]2(C)[C@@H](O)CC[C@@H]12 [2-Methoxyestradiol (2-MeOE2), 2-Methoxyestradiol]",2.62
5,CCNc1nc(Nc2cc(F)c(C(=O)N3CCOCC3)cc2OC)ncc1C(F)(F)F [GNE-7915],2.41
6,"CC(C)(C)c1cc(C(C)(C)C)c(NC(=O)c2c[nH]c3ccccc3c2=O)cc1O [Ivacaftor (VX-770), Ivacaftor]",1.27
7,"C=CC(=O)N1CCC[C@@H](n2nc(-c3ccc(Oc4ccccc4)cc3)c3c(N)ncnc32)C1 [Ibrutinib (PCI-32765), Ibrutinib]",0.53
8,COc1cc(-n2c(=S)[nH]c3ccccc3c2=O)c(Cl)cc1Cl [Mdivi-1],2.10
9,O=C(NCCO)c1cccc(-c2cc(Nc3ccc(OC(F)(F)F)cc3)ncn2)c1 [GNF-5],2.94
10,Cc1c(-c2ccc(O)cc2)n(Cc2ccc(OCCN3CCCCCC3)cc2)c2ccc(O)cc12 [Bazedoxifene HCl],0.15
11,O=C(NC(Cc1cc(=O)[nH]c2ccccc12)C(=O)O)c1ccc(Cl)cc1 (stereo not shown) [Rebamipide],2.54
12,"CC(C)C[C@H](NC(=O)[C@H](Cc1ccccc1)NC(=O)c1cnccn1)B(O)O [Bortezomib (PS-341), Bortezomib]",0.37
13,Cl.O=C(O)Cc1cccc(OCCCN(Cc2cccc(C(F)(F)F)c2Cl)CC(c2ccccc2)c2ccccc2)c1 [GW3965 HCl],0.74
14,CC(C)N(CCCNC(=O)Nc1ccc(C(C)(C)C)cc1)C[C@H]1O[C@@H](n2cc(Br)c3c(N)ncnc32)[C@H](O)[C@@H]1O [SGC 0946],1.90
15,CCN(CC)C(=O)c1ccc(C2=CC3(CCNCC3)Oc3cccc(O)c32)cc1 [ADL5859 HCl],0.95
16,CN(C)CCOc1ccc(/C(=C(/CCCl)c2ccccc2)c2ccccc2)cc1 [Toremifene Citrate],0.19
17,CCN(CC)CCCC(C)Nc1nc(C)cc(Nc2ccc3nc(C)cc(N)c3c2)n1 (stereo not shown) [NSC 23766],1.30
18,O=C(/C=C/c1ccc(O)c(O)c1)OCCc1ccccc1 [Caffeic Acid Phenethyl Ester],0.44
19,NC(=O)Nc1cc(-c2cccc(F)c2)sc1C(=O)N[C@H]1CCCNC1 [AZD7762],0.45
20,CCNC(=O)c1noc(-c2cc(C(C)C)c(O)cc2O)c1-c1ccc(CN2CCOCC2)cc1 [AUY922 (NVP-AUY922)],0.93
21,CC(C)CC(=O)Nc1[nH]nc2c1CN(C(=O)C1CCN(C)CC1)C2(C)C [PHA-793887],2.28
